# Measurements from patent publication US12258360B2, “Compositions and methods for treatment of anticancer-drug resistant cancers” (THE GEORGE WASHINGTON UNIVERSITY, priority 2020, dated 2025).
# Assays:
# IGROV1 cells = experiment: flow cytometry (FACS) of propidium-iodide stained IGROV1 cells; format: cell-based, human; details: 1 μM
# [1] = test system: recruitment of CtIP to DSB sites in IGROV1 cells; experiment: immunofluorescence assay of CtIP co-localization with γH2AX after micro-irradiation; format: cell-based, human; details: 1 μM, 30 minutes post irradiation
# Protocol: H2AX (H2A histone family member X) becomes phosphorylated on serine 139 (wherein the phosphorylated form is then called […]) as a reaction on DNA double-strand breaks (DSB). And-1 regulates DSB end resection by establishing a condition or acting as a platform for recruitment of the tumor suppressor protein CtIP—a CtBP (carboxy-terminal binding protein)-interacting protein, to the DSB sites. […] In brief, IGROV1 cells were cultured on coverslips coated with 0.01% of poly-L-lysine. After treatment, the cells were then washed once with PBS, then pre-extracted with 0.5% Triton X-100 extraction buffer (10 mM PIPES pH 7.0, 100 mM NaCl, 3 mM MgCl2 and 300 mM sucrose) on ice for 5 minutes. After washing with PBS, cells were fixed with 4% paraformaldehyde in PBS for 15 minutes. Cells were then washed and incubated for 10 minutes in blocking buffer (PBS containing 3% BSA and 0.02% Tween-20) and subsequently incubated for 1 hour with a primary antibody at room temperature. Cells were washed three times with PBS-T (PBS containing 0.02% Tween-20) and then incubated with a secondary antibody (e.g., rabbit Alexa Fluor-594 and mouse Alexa Fluor-488). After washing with PBS-T, cells were mounted with Fluoromount G containing DAPI (4′,6-diamidino-2-phenylindole—a fluorescent stain that binds strongly to adenine-thymine-rich regions in DNA). Slides were then imaged using a Nikon Eclipse 80i microscope. […]
# IGROV1 CR xenograft = format: in vivo, mice
# Protocol: To evaluate the potency of And-1 inhibitors in vivo, IGROV1 or MCF7 cells were subcutaneously implanted into nude mice to form ovarian or breast tumors, respectively. In brief, 5-6 week-old female BALB/c athymic nude mice (CByJ.Cg-Foxn1nu/J, weighting 20-25 grams) were inoculated subcutaneously by injecting the OC cells, cisplatin resistant OC cells or breast cancer cells suspended in 100 μl ice-cold Matrigel/PBS (1:1, V:V; 5×10^6/mouse) into the dorsal flank of each mouse. When the average tumor volume reached 100-150 mm^3, the mice were randomized into subsequent experiment groups. For tumors treated with CH3 only, CH3 was given at 0 mg/kg, 20 mg/kg and 40 mg/kg via intraperitoneal injection twice a week for three weeks. […] The relative tumor volumes were calculated using the formula: a×(b^2)/2, for which a and b represented the longest and shortest diameters, respectively. During the drug treatment, the tumor volume and body weight were measured. Tumor samples were collected 4 days after final administration of the drug.
# To assess the efficacy of combination therapy with And-1 inhibitor and cisplatin in vivo, an IGROV1 CR xenograft was treated with vehicle, And-1 inhibitors, cisplatin or combination of cisplatin and And-1 inhibitor via intraperitoneal injection.
# And-1 [2] = biological target: T1, And-1 (Homo sapiens, UniProt O75717); experiment: immunoblot analysis of And-1 expression in IGROV1 cells; format: cell-based; parameters: endogenous in cells; host or cells: IGROV1 CR; details: immunoblot, read-out: IC50 for inhibition of And-1 expression
# T1 sequence (O75717 1-1129): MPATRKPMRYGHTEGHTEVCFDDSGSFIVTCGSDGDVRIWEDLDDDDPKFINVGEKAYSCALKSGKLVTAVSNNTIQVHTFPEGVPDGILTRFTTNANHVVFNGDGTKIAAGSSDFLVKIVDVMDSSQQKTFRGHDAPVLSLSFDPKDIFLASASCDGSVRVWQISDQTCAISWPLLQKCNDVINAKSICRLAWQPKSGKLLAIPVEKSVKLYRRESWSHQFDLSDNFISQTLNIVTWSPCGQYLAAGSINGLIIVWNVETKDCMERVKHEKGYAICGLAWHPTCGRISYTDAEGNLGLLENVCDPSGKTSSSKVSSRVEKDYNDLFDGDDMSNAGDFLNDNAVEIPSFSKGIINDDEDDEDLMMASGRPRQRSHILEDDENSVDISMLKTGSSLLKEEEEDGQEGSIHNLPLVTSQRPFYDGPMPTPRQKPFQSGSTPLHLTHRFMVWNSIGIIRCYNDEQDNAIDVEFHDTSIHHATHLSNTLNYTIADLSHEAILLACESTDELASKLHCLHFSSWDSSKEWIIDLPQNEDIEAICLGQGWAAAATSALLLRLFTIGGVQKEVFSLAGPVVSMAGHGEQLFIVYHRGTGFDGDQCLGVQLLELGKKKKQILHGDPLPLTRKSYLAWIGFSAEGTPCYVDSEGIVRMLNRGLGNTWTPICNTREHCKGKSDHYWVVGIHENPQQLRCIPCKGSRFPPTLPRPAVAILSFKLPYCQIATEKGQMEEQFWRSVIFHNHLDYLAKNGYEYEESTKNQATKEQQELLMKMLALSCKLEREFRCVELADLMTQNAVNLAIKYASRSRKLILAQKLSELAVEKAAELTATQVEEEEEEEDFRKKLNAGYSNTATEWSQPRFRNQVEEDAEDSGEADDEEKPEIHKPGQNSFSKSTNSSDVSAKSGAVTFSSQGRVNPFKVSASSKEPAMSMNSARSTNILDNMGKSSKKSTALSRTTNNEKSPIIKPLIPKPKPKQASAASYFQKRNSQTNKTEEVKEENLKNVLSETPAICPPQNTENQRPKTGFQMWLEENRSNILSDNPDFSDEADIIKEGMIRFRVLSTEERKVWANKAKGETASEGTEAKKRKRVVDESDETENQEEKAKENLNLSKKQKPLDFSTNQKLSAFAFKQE
# Protocol: The high IC50 of resveratrol compromises its potential clinical application; therefore, resveratrol was used as a lead compound to screen 12 analogs of resveratrol for potent compounds that can inhibit And-1 (FIG. 14). […] To perform immunoblot analyses, cells were first treated with increasing concentrations of the 12 analogs. After treatment, the cells were harvested and then lysed with RIPA buffer protease inhibitor and phosphatase inhibitor cocktail. Protein concentration was determined by the BCA protein assay. Equal amounts of whole cell lysates were separated on sodium dodecyl sulfate polyacrylamide gel electrophoresis (SDS-PAGE) and transferred onto nitrocellulose membranes. Membranes were then incubated in blocking solution (5% non-fat milk in 20 mM TRIS-HCl, 150 mM NaCl, 0.1% Tween-20) (TBST), followed by incubation with the indicated antibodies at 4° C. overnight. The membranes were then washed in TBST and incubated with HRP-conjugated secondary antibodies for 1 hour at room temperature (21° C.±2° C.). Antibody detection was performed with an enhanced chemiluminescence reaction.
# SREBP target gene SCD-1 = experiment: RT-PCR detection of SCD-1 gene expression in AN3CA cells; format: cell-based, human; details: 10 μM; for Relative mRNA expression of SCD-1: 48 h, DMSO = 1
# Protocol: • 1. Experimental reagent • 2. The experimental steps are as follows: • 2.1 AN3CA cell recovery and culture (10% serum 1% double antibody in MEM medium); • 2.2 passages (passage at a ratio of 1:2); • 2.3 Place 6 well plates when the cell status is good, 5×10^5Well, culture overnight; • 2.4 adding medicine: diluting the final concentration of the drug with a culture medium to 10 μM, 2 mL/well; • 2.5 adding medicine for 48 h, and then extracting RNA; • 2.5.1 removing the culture medium, adding 0.5 mL/hole Trizol to lyse the cells, repeatedly blowing and beating the cells by a pipette after 5 min, completely lysing the cells, transferring the cells into a 1.5 mL EP tube without RNase, and standing the tube for 5 min; • 2.5.2 adding 200 µl chloroform, shaking rapidly, mixing, standing for 10 min 12000 rpm/15 min; • 2.5.3 carefully taking out the supernatant, transferring the supernatant into an EP tube, adding isopropanol with the same volume, reversing, uniformly mixing, standing for 10 min, and centrifuging at 12000 rpm/10 min; • 2.5.4 removing the supernatant, adding 1 mL of 75% ethanol for washing, centrifuging at 8000 rpm/5 min once, carefully removing the supernatant, standing at room temperature for 10 min to volatilize the ethanol, and dissolving the precipitate with 40 μL of DEPC treated water when the precipitate becomes transparent; • 2.5.5 RNA concentration was measured and DEPC-treated water was diluted to 100 ng/μL • 2.6 reverse transcription: Kit Takara (PrimeScript RT reagent Kit (Perfect Real Time)
# AN3CA cells [3] = experiment: cell clonogenic assay in AN3CA cells; format: cell-based, human
# Protocol: • 1. The experimental steps are as follows: • 1.1 AN3CA cell recovery and culture (MEM medium, 10% serum, 1% double antibody); • 1.2 Passages (1:2 ratio passage); • 1.3 When the cell state is good, laying 6-hole plates, 500/hole, and culturing overnight; • 1.4 Adding medicine: […], 2 mL/well; • 1.5 Adding medicine in a liquid changing mode every two days; • 1.6 Frequent observation. The culture was terminated when macroscopic colonies appeared in the culture dish. The supernatant was discarded, carefully rinsed 2 times with PBS and air dried. Cells were fixed with 5 mL of 4% paraformaldehyde for 30 minutes or with methanol for 10 minutes. And (3) removing the stationary liquid after air drying, adding a proper amount of GIMSA, dyeing for 10-30 minutes by using the dyeing liquid, then slowly washing away the dyeing liquid by using running water, and air drying. • 1.7 Plates were inverted and overlaid with a piece of transparent film with grid and clones were counted either directly with the naked eye or with a microscope (low power) for clones larger than 10 cells. And finally calculating the clone formation rate. • 1.8 Percent colony formation rate (number of clones/number of inoculated cells)×100%
# AN3CA cells [4] = experiment: cell proliferation assay (MTS) in AN3CA cells; format: cell-based, human; details: 48 h; for inhibition of AN3CA cell proliferation (in words): 10 μM
# Protocol: • 1. The experimental steps are as follows: • 1.1 AN3CA cell recovery and culture (MEM medium, 10% serum, 1% double antibody); • 1.2 Passages (passage at a ratio of 1:2); • 1.3 Place 96-well plate when the cell status is good, 1×10^4 Well, culture overnight; • culture medium with 10% defatted serum • 1.4 Adding medicine: diluting the final concentration of the drug with a culture medium to 10 μM, and treating for 48 h at 100 μL/well; • culture medium with 10% defatted serum • 1.5 Addition of 2 μL MTS/well, care taken to prevent bubble formation, 490 nm data after 1-4 h
# And-1 [5] = biological target: T1, And-1; experiment: inhibition of And-1 in OV90 CR cells; format: cell-based; parameters: endogenous in cells; details: inhibition of And-1, OV90 CR cells
# And-1 [6] = biological target: T1, And-1; experiment: inhibition of And-1 in IGROV1 CR cells; format: cell-based; parameters: endogenous in cells; host or cells: IGROV1 CR; details: inhibition of And-1, IGROV1 CR cells
# And-1 [7] = biological target: T1, And-1; experiment: cellular thermal shift assay; format: binding; parameters: endogenous in cells; host or cells: IGROV1 CR; details: cells incubated 8 hours, compared to DMSO
# Protocol: To explore whether And-1 inhibitors directly bind to And-1, cellular thermal shift assays were performed in which a small molecule binds to a protein resulting in thermal stabilization of the protein. Briefly, cells were incubated with MG132 (10 μM), DHS, CH3, CH10 or DMSO for 8 hours. After washing with ice-cold PBS (suppled with Protease Inhibitor Cocktail), cells were aliquoted into PCR tubes (100 μL each) and then incubated at different temperatures (from 25° C. to 71° C.) for 4 minutes. After the cells were frozen and thawed twice using liquid nitrogen, proteins were isolated from the cells after centrifugation and incubated at 70° C. for 10 minutes for analysis by western blotting.
structure (smiles),measurement,setting,value
"CC(=O)O.Cc1c(-c2ccc(O)cc2)n(Cc2ccc(OCCN3CCCCCC3)cc2)c2ccc(O)cc12 [BZA, reference compound]",percentage of cells in the S-phase,IGROV1 cells,reduced the percentage of cells in the S-phase
same,recruitment of CtIP to DSB sites induced by micro-irradiation,[1],significantly decreased
same,And-1 expression in tumor samples (IHC),IGROV1 CR xenograft; IGROV1 CR xenograft,suppressed expression of And-1
same,"tumor growth, combination with cisplatin vs cisplatin alone","IGROV1 CR xenograft; IGROV1 CR xenograft, cisplatin 8 mg/kg, CH3 20 mg/kg, BZA 2 mg/kg intraperitoneally, three weeks",excellent synergy in reducing tumor growth
same,"systemic toxicity of combination with cisplatin (body weight, H&E staining)","IGROV1 CR xenograft; mouse, in vivo",no obvious systemic toxicity or side effect
same,IC50,And-1 [2],0.32 µM
"OB1OCc2cc(/C=C/c3cccc(C(F)(F)F)c3)ccc21 [Compound II, (E)-5-(3-(trifluoromethyl)styryl)benzo[c][1,2]oxaborol-1(3H)-ol]",activity of reducing SCD-1 gene expression (in words),SREBP target gene SCD-1; AN3CA cells,better than those of BF-175
same,Relative mRNA expression of SCD-1,SREBP target gene SCD-1; AN3CA cells,0.39
same,inhibitory effect on Srebp,SREBP target gene SCD-1; human endometrial cancer AN3CA cells,high inhibitory effect
same,inhibition of clone formation rate,AN3CA cells [3]; 10 μM,completely inhibit
same,inhibition of AN3CA cell proliferation (in words),AN3CA cells [4],superior to BF 175
same,inhibition at 10 µM,"AN3CA cells [4]; Homo sapiens, AN3-CA, MTS",80%
same,IC50,And-1 [5],21.1 µM
same,IC50,And-1 [6],20.4 µM
"Oc1ccc(/C=C/c2ccc(O)cc2)cc1 [DHS, reference compound]",IC50,And-1 [2],8.92 µM
same,thermal stabilization of And-1 protein at higher temperatures,And-1 [7],stabilized
"OB1OCc2cc(/C=C/c3cc(Cl)cc(Cl)c3)ccc21 [XIV, (E)-5-(3,5-dichlorostyryl)benzo[c][1,2]oxaborol-1(3H)-ol]",Relative mRNA expression of SCD-1,SREBP target gene SCD-1; AN3CA cells,0.46
same,inhibition of clonogenic rate,AN3CA cells [3]; 5 μM,comparable to that of 10 μM BF 175
same,inhibition of AN3CA cell proliferation (in words),AN3CA cells [4],different degrees of inhibition
same,IC50,And-1 [5],29.9 µM
same,IC50,And-1 [6],25.7 µM
